Literature values in patent US20110009348A1, “CARBOHYDRATE GEL” (priority 2008, published 2011).

Test system: male cyclists
Conditions: comparison values given in text, source not stated

O=C(CO)[C@@H](O)[C@H](O)[C@H](O)CO [fructose]
peak oxidation achieved with a single carbohydrate source: ~0.4 g/min
